Data taken from patent US20040132027A1, “Screening method for discovering auxiliary agents promoting endocytosis” (priority 2000, published 2004).

Test system: yeast cells of the strain RPY10
Test: Transformation rate of yeast cells incubated with plasmid YEP24, with and without auxiliary agent
Format: cell-based, Saccharomyces cerevisiae
Details: 5 μl chloroquine (100 mM solution) in 1 ml 1M saccharose pH 3.3, 10 μg YEP24, 24 h at 24° C., without chloroquine 0.8
Description: A test method for the quantification of the uptake and the endocytosis transfer was made as follows. […] cells from the logarithmic growth phase of the strain RPY10 (Matα, leu2-3, ura3, his4 ade6 (4×10^7−7×10^7 cells per ml) (Piper, R. C., Whitters, E. A., Stevens, T. H. (1994) Yeast VpsS4p is a Sec 1p-like protein required for the consumption of vacuolar targeted, post-Golgi vesicles. Eur. J. Cell Biol. 65:305-318) were incubated for 24 h with 10 μg of the purified plasmid YEP24 (see: D. Bothstein et al., 1979, Gene 8:17-24), with and without auxiliary agent. The structure of the plasmid is shown in FIG. 1.
Prior to the incubation, the cells were washed with the plasmid with at least twice the same volume of H2O and taken up in 1 ml 1M saccharose (pH 3.3, high concentrations of fermentable sugar), re-suspended with the pipette tip and brought in one 10 ml each falcon tube. […] Both were incubated for 5 min at room temperature.
Then 10 μg DNA from the same DNA preparation were pipetted thereto (in 3-100 μl). The falcon tubes were firmly closed and agitated for 24 hours in a water bath or breeding room at 24° C. (the optimum transformation rate is at 24° C.-28° C). […]
After the incubation, 200-500 cells per plate on YE plates (full medium) were plated out, and the colony-forming units (CFU) were determined. […] After 5 days at 24° C., the CFU were counted and tested by means of PCR. […]

`CCN(CC)CCCC(C)Nc1ccnc2cc(Cl)ccc12` (stereo not shown) [chloroquine] was tested. Which transformation rate did it give?
The transformation rate was 10.2 10^−8 transformants/CFU.
